Source: ChEMBL document CHEMBL3885861, “Open TG-GATES”

Species on record: Rattus norvegicus
Assay: Open TG-GATES - Regimen: Daily Repeat
Type: toxicity, organism-based, Sprague-Dawley
Parameters: regimen Daily Repeat, gender Male, age 6 weeks
Conditions: in vivo, po, 0 mg/kg, route gavage, dose level Control; for APTT / Bas / Eos / Fbg / Hb / Ht / Lym / MCH / MCHC / MCV / Mono / Neu / PT / Plat / RBC / Ret / WBC: tissue Blood; for KIDNEY_L / KIDNEY_R / KIDNEY_TOTAL: tissue Kidney; for LIVER: tissue Liver; for A/G / ALP / ALT / AST / BUN / CRE / Ca / Cl / DBIL / GLC / IP / K / LDH / Na / PL / RALB / TBIL / TC / TG / TP / gamma-GTP: tissue Plasma

O=C(O)c1cc(/N=N/c2ccc(S(=O)(=O)Nc3ccccn3)cc2)ccc1O [SULFASALAZINE]
TERMINAL_BW (72 h, time 3 day): 237.4 g
APTT (72 h, time 3 day): 18.3 s
Bas (72 h, time 3 day): 0%
Eos (72 h, time 3 day): 1%
Fbg (72 h, time 3 day): 245.4 mg/dL
Hb (72 h, time 3 day): 13.3 g/dL
Ht (72 h, time 3 day): 38.5%
Lym (72 h, time 3 day): 78.2%
MCH (72 h, time 3 day): 22 pg
MCHC (72 h, time 3 day): 34.7%
MCV (72 h, time 3 day): 63.5 fL
Mono (72 h, time 3 day): 3%
Neu (72 h, time 3 day): 16.8%
PT (72 h, time 3 day): 12.4 s
Plat (72 h, time 3 day): 125.9 x10_4/uL
RBC (72 h, time 3 day): 607.8 x10_4/ul
Ret (72 h, time 3 day): 6.3%
WBC (72 h, time 3 day): 93.4 x10_2/uL
KIDNEY_L (72 h, time 3 day): 1 g
KIDNEY_R (72 h, time 3 day): 1 g
KIDNEY_TOTAL (72 h, time 3 day): 2 g
LIVER (72 h, time 3 day): 11.2 g
A/G (72 h, time 3 day): 1.4
ALP (72 h, time 3 day): 938.8 IU/L
ALT (72 h, time 3 day): 39.8 IU/L
AST (72 h, time 3 day): 74.2 IU/L
BUN (72 h, time 3 day): 16.6 mg/dL
CRE (72 h, time 3 day): 0.4 mg/dL
Ca (72 h, time 3 day): 11 mg/dL
Cl (72 h, time 3 day): 102.6 meq/L
DBIL (72 h, time 3 day): 0.1 mg/dL
GLC (72 h, time 3 day): 207.4 mg/dL
IP (72 h, time 3 day): 7.3 mg/dL
K (72 h, time 3 day): 4 meq/L
LDH (72 h, time 3 day): 226.6 IU/L
Na (72 h, time 3 day): 140.6 meq/L
PL (72 h, time 3 day): 157 mg/dL
RALB (72 h, time 3 day): 3.4 g/dL
TBIL (72 h, time 3 day): 0.2 mg/dL
TC (72 h, time 3 day): 75.6 mg/dL
TG (72 h, time 3 day): 104 mg/dL
TP (72 h, time 3 day): 5.7 g/dL
gamma-GTP (72 h, time 3 day): 1.2 IU/L
TERMINAL_BW ([…], time 7 day): 263.5 g
TERMINAL_BW ([…], time 14 day): 308.2 g
TERMINAL_BW ([…], time 28 day): 377.2 g
APTT ([…], time 7 day): 19.2 s
Bas ([…], time 7 day): 0%
Eos ([…], time 7 day): 1%
Fbg ([…], time 7 day): 223.4 mg/dL
Hb ([…], time 7 day): 14.1 g/dL
Ht ([…], time 7 day): 41.1%
Lym ([…], time 7 day): 81.6%
MCH ([…], time 7 day): 21.5 pg
MCHC ([…], time 7 day): 34.2%
MCV ([…], time 7 day): 62.8 fL
Mono ([…], time 7 day): 2.6%
Neu ([…], time 7 day): 14.2%
PT ([…], time 7 day): 12.3 s
Plat ([…], time 7 day): 129.3 x10_4/uL
RBC ([…], time 7 day): 655 x10_4/ul
Ret ([…], time 7 day): 5.5%
WBC ([…], time 7 day): 126 x10_2/uL
APTT ([…], time 14 day): 19.7 s
Bas ([…], time 14 day): 0%
Eos ([…], time 14 day): 1%
Fbg ([…], time 14 day): 229.4 mg/dL
Hb ([…], time 14 day): 14.7 g/dL
Ht ([…], time 14 day): 41.7%
Lym ([…], time 14 day): 78.4%
MCH ([…], time 14 day): 20.9 pg
MCHC ([…], time 14 day): 35.3%
MCV ([…], time 14 day): 59.2 fL
Mono ([…], time 14 day): 2.4%
Neu ([…], time 14 day): 16.8%
PT ([…], time 14 day): 12.2 s
Plat ([…], time 14 day): 115.1 x10_4/uL
RBC ([…], time 14 day): 703.6 x10_4/ul
Ret ([…], time 14 day): 3.9%
WBC ([…], time 14 day): 92.7 x10_2/uL
APTT ([…], time 28 day): 20.6 s
Bas ([…], time 28 day): 0%
Eos ([…], time 28 day): 0.8%
Fbg ([…], time 28 day): 217.8 mg/dL
Hb ([…], time 28 day): 15.6 g/dL
Ht ([…], time 28 day): 43.1%
Lym ([…], time 28 day): 83.8%
MCH ([…], time 28 day): 20.1 pg
MCHC ([…], time 28 day): 36.2%
MCV ([…], time 28 day): 55.6 fL
Mono ([…], time 28 day): 1.4%
Neu ([…], time 28 day): 12.4%
PT ([…], time 28 day): 12.5 s
Plat ([…], time 28 day): 98.7 x10_4/uL
RBC ([…], time 28 day): 775.4 x10_4/ul
Ret ([…], time 28 day): 2.3%
WBC ([…], time 28 day): 97.9 x10_2/uL
KIDNEY_L ([…], time 7 day): 1.1 g
KIDNEY_R ([…], time 7 day): 1.1 g
KIDNEY_TOTAL ([…], time 7 day): 2.2 g
KIDNEY_L ([…], time 14 day): 1.2 g
KIDNEY_R ([…], time 14 day): 1.2 g
KIDNEY_TOTAL ([…], time 14 day): 2.4 g
KIDNEY_L ([…], time 28 day): 1.3 g
KIDNEY_R ([…], time 28 day): 1.3 g
KIDNEY_TOTAL ([…], time 28 day): 2.5 g
LIVER ([…], time 7 day): 12 g
LIVER ([…], time 14 day): 13.3 g
LIVER ([…], time 28 day): 14.8 g
A/G ([…], time 7 day): 1.4
ALP ([…], time 7 day): 884.4 IU/L
ALT ([…], time 7 day): 33 IU/L
AST ([…], time 7 day): 64.6 IU/L
BUN ([…], time 7 day): 16.8 mg/dL
CRE ([…], time 7 day): 0.4 mg/dL
Ca ([…], time 7 day): 10.7 mg/dL
Cl ([…], time 7 day): 103.4 meq/L
DBIL ([…], time 7 day): 0.092 mg/dL
GLC ([…], time 7 day): 233.6 mg/dL
IP ([…], time 7 day): 7.5 mg/dL
K ([…], time 7 day): 3.5 meq/L
LDH ([…], time 7 day): 218.6 IU/L
Na ([…], time 7 day): 140.8 meq/L
PL ([…], time 7 day): 160.4 mg/dL
RALB ([…], time 7 day): 3.4 g/dL
TBIL ([…], time 7 day): 0.1 mg/dL
TC ([…], time 7 day): 78.8 mg/dL
TG ([…], time 7 day): 99.8 mg/dL
TP ([…], time 7 day): 5.9 g/dL
gamma-GTP ([…], time 7 day): 1.2 IU/L
A/G ([…], time 14 day): 1.3
ALP ([…], time 14 day): 900.6 IU/L
ALT ([…], time 14 day): 43.4 IU/L
AST ([…], time 14 day): 76.6 IU/L
BUN ([…], time 14 day): 18.6 mg/dL
CRE ([…], time 14 day): 0.5 mg/dL
Ca ([…], time 14 day): 10.6 mg/dL
Cl ([…], time 14 day): 103.4 meq/L
DBIL ([…], time 14 day): 0.1 mg/dL
GLC ([…], time 14 day): 189.8 mg/dL
IP ([…], time 14 day): 6.4 mg/dL
K ([…], time 14 day): 3.8 meq/L
LDH ([…], time 14 day): 292 IU/L
Na ([…], time 14 day): 140.4 meq/L
PL ([…], time 14 day): 155 mg/dL
RALB ([…], time 14 day): 3.3 g/dL
TBIL ([…], time 14 day): 0.2 mg/dL
TC ([…], time 14 day): 63.2 mg/dL
TG ([…], time 14 day): 175.8 mg/dL
TP ([…], time 14 day): 6 g/dL
gamma-GTP ([…], time 14 day): 1.2 IU/L
A/G ([…], time 28 day): 1.3
ALP ([…], time 28 day): 718.2 IU/L
ALT ([…], time 28 day): 49.2 IU/L
AST ([…], time 28 day): 80.6 IU/L
BUN ([…], time 28 day): 17.8 mg/dL
CRE ([…], time 28 day): 0.5 mg/dL
Ca ([…], time 28 day): 10.3 mg/dL
Cl ([…], time 28 day): 103.6 meq/L
DBIL ([…], time 28 day): 0.1 mg/dL
GLC ([…], time 28 day): 217.6 mg/dL
IP ([…], time 28 day): 6.1 mg/dL
K ([…], time 28 day): 3.7 meq/L
LDH ([…], time 28 day): 287.2 IU/L
Na ([…], time 28 day): 141.2 meq/L
PL ([…], time 28 day): 148.4 mg/dL
RALB ([…], time 28 day): 3.4 g/dL
TBIL ([…], time 28 day): 0.2 mg/dL
TC ([…], time 28 day): 68.8 mg/dL
TG ([…], time 28 day): 151.4 mg/dL
TP ([…], time 28 day): 6.2 g/dL
gamma-GTP ([…], time 28 day): 0.8 IU/L
